Results reported in US20220016113A1, “?2-ADRENOCEPTOR SUBTYPE C (ALPHA-2C) ANTAGONISTS FOR THE TREATMENT OF SLEEP APNEA” (Bayer Aktiengesellschaft, priority 2018, published 2022).

Tested on: pig model of obstructive sleep apnea (OSA)
Test: pig model of obstructive sleep apnea (OSA): upper airway collapsibility under negative pressure
Assay type: in vivo, German Landrace pigs
Settings: anaesthetized pigs
Text: The therapeutic potential of the compounds of formula (I) according to the present invention in sleep apnea has been assessed preclinically in a pig model of obstructive sleep apnea (OSA).
Using negative pressure, it is possible to induce collapse and thus obstruction of the upper respiratory tract in anaesthetized, spontaneously breathing pigs (Wirth K. J. et al., Sleep 36(5) (2013) pp. 699-708).
German Landrace pigs are used for the model. The pigs are anaesthetized and tracheotomized. Two tracheal cannulas are inserted into the trachea, one into the rostral part and the other into the caudal part of the trachea. Using a connection piece, the rostral cannula is connected to a tube to the negative pressure device and to the distal tracheal cannula. The distal tracheal cannula is additionally connected to a tube with an open end to atmosphere via a connection piece that served for free tracheal breathing, circumventing the upper airway. By appropriate opening and clamping of those tubes breathing can be switched from nasal breathing to breathing through the caudal tracheal cannula, circumventing the upper airway, and the (isolated) upper airway can be connected to the negative pressure device, causing airflow in the inspiratory direction.
At certain points in time, the collapsibility of the upper respiratory tract is tested by having the pig breathe via the caudal cannula and applying negative pressures of −50, −100 and −150 cm water head (cm H2O) to the upper respiratory tract. This causes the upper respiratory tract to collapse, which manifests itself in an interruption of the airflow and a pressure drop in the tube system. This test is conducted prior to the administration of the test substance and at certain intervals after the administration of the test substance. An appropriately effective test substance can prevent this collapse of the respiratory tract in the inspiratory phase.

Structure (SMILES): O=C(c1cnc(N2CC3(COC3)C2)nc1)N1CCC(N2CCc3ccccc3C2)CC1 [[4-(3,4-Dihydroisoquinolin-2(1H)-yl)piperidin-1-yl][2-(2-oxa-6-azaspiro[3.3]hept-6-yl)pyrimidin-5-yl]methanone]
- inhibited upper airway collapsibility, duration (i.v. bolus 0.007 mg/kg followed by i.v. infusion 0.0025 mg/kg/h for four hours, negative pressure −50 cm water head): up to two hours
- inhibited upper airway collapsibility, duration (i.v. bolus 0.007 mg/kg followed by i.v. infusion 0.0025 mg/kg/h for four hours, negative pressure −100 cm water head): up to 90 minutes
- inhibited upper airway collapsibility, duration (i.v. bolus 0.07 mg/kg followed by i.v. infusion 0.025 mg/kg/h for four hours, negative pressure −50 cm water head): up to four hours
- inhibited upper airway collapsibility, duration (i.v. bolus 0.07 mg/kg followed by i.v. infusion 0.025 mg/kg/h for four hours, negative pressure −100 cm water head): up to four hours
- inhibited upper airway collapsibility, duration (i.v. bolus 0.07 mg/kg followed by i.v. infusion 0.025 mg/kg/h for four hours, negative pressure −150 cm water head): up to two hours
